Results from article PMC10321287, “β-amyloid binds to microglia Dectin-1 to induce inflammatory response in the pathogenesis of Alzheimer's disease” (International Journal of Biological Sciences, 2023).

Legend:
Dectin-1 [1] = assay: Co-IP of APP/β-amyloid and Dectin-1 in brain lysates; assay type: binding, mice; conditions: lysates from WT and Aβ42 brain tissues, Protein A magnetic beads
Procedure: The triggering receptor expressed on myeloid cells 2 (Trem2) is a microglial surface receptor genetically linked to the risk of AD [28]. Most Aβ functions in microglia are thought to be mediated by its binding to Trem2 [29]. […] Trem2 is the currently reported microglia receptor that can directly bind to Aβ, and we used it as a positive control in this experiment. […] Next, we performed a protein interaction analysis using Co-IP. APP/β-amyloid was added to Protein A magnetic beads as a bait protein, and lysates from WT and Aβ42 brain tissues were added. […] In turn, we could also capture the expression of APP/β-amyloid protein using Dectin-1 as a bait protein (Figure 6C). […] Therefore, we used surface plasmon resonance (SPR) to identify direct Aβ42-Dectin-1 interactions at the molecular level. […] Nuclei are counterstained with DAPI (blue) [scale bar = 5 μm]. (B) Bio-Aβ42 is added to streptavidin-agarose beads and incubated. Biotin alone was used as control. Lysates prepared from BV2 cells were added to beads. The eluent was loaded onto a polyacrylamide gel for western blot analysis. Total lysates were used as input controls. Trem2 was used as a positive control. (C) The Dectin-1-APP/ β-amyloid interaction is analyzed by co-immunoprecipitation in the brains of WT and model mice. […] Mean KD constant derived from five separate experiments. (E) 3D binding model of dectin-1 and amyloid beta peptide. […]

Syk = Syk phosphorylation in BV2 cells (western blot); assay type: cell-based; conditions: 20 µM Bio-Aβ42, 45 min
Source text: (§1) GAPDH was used as loading control. […] GAPDH was used as loading control. […] GAPDH was used as loading control. […] GAPDH was used as loading control.

Dectin-1 [2] = assay: Pull-down with Bio-Aβ42 from BV2 lysates; assay type: binding; conditions: 100 µL of 20 μM biotinylated Aβ42 on streptavidin-agarose beads, lysate 24 h at 4°C; biotin control; Trem2 positive control
Procedure: Lysates prepared from microglia cells and mouse brain tissues were then added to the streptavidin-agarose beads with biotinylated- Aβ42. The mixture was incubated for 24h at 4°C under gentle rocking. Samples were then spun and washed 3 times. Then, 5x loading buffer was added in the elution buffer and boiled for 10min, and the samples were used for western blot analysis. Total lysates were used as an input control.
Nuclei are counterstained with DAPI (blue) [scale bar = 5 μm]. (B) Bio-Aβ42 is added to streptavidin-agarose beads and incubated. Biotin alone was used as control. Lysates prepared from BV2 cells were added to beads. The eluent was loaded onto a polyacrylamide gel for western blot analysis. Total lysates were used as input controls. Trem2 was used as a positive control. (C) The Dectin-1-APP/ β-amyloid interaction is analyzed by co-immunoprecipitation in the brains of WT and model mice. […] Mean KD constant derived from five separate experiments. (E) 3D binding model of dectin-1 and amyloid beta peptide. The backbones of dectin-1 and amyloid beta peptide are shown as cartoons. The residues in dectin-1 are shown as cyan sticks, whereas the residues in amyloid beta-peptide are shown as wheat sticks. The hydrogen bonds are depicted as red dashed lines and the salt bridges are depicted as blue dashed lines.

BV2 cells = assay: Microglia phagocytosis and clearance of FITC-Aβ42 (flow cytometry); assay type: cell-based; conditions: 20 μM FITC-Aβ42, 2 h (phagocytosis) then 24 h in FITC-Aβ-free medium (clearance), Dectin-1-deficient BV2 cells
Procedure: After incubation, the medium containing FITC-Aβ was removed, and the cells were washed three times with 1xPBS. BV2 cells were collected by centrifugation at 3000rpm for 5min, and resuspended in ice-cold 1xPBS solution. […] Cells were cultured in the FITC-Aβ-free medium for another 24 hours. Collect the cells and detect the level of intracellular Aβ by flow cytometry.

NF-κB p65 = assay: p65 nuclear translocation in BV2 cells (immunofluorescence); assay type: cell-based; conditions: Aβ42-stimulated BV2 cells, siRNA targeting Dectin-1
Procedure: Properly treated BV2 cells were fixed in 4% paraformaldehyde (PFA) for 15-20 min. The BV2 cells were then incubated with 1x PBS containing 0.1% Triton X-100 (PBST) for 20 min to increase membrane permeability. After block with 1% BSA for 1 h at room temperature, the primary antibody (1:100) was added and incubate overnight at 4 °C. Next day, the cells were washed three times with 1xPBS and incubated with fluorophore conjugated secondary antibody (1:500) for 2h. Finally, one drop of antifade mounting medium with DAPI (P0131, Beyotime) was added to stain the Nuclei. Then, sections were observed and analyzed under a Nikon A1 confocal microscope.
(§2) Figure 5 Dectin-1 interference prevents Aβ42-induced inflammatory response in BV2 cells. (A) Time-course of Dectin-1-Syk interaction. […] (B) HEK-293T cells were transfected with Flag-tagged Dectin-1 (Flag-D1) and HA-tagged Dectin-1 (HA-D1). […] (C) Time-course of Syk phosphorylation. […] Total proteins were extracted and probed for p-Syk and Syk levels. GAPDH was used as loading control. (D) Dose-course of Syk phosphorylation. […] Total proteins were used to measure p-Syk and Syk levels. GAPDH was used as loading control. (E) Determination of Dectin-1 interference efficiency in BV2 cells. […] (H) TNFα release in cell supernatant measured by ELISA. (I) IL-1β release in in cell supernatant measured by ELISA. […]

TNF-α and IL-1β = TNF-α and IL-1β release from BV2 cells (ELISA); assay type: cell-based; conditions: Aβ42-stimulated BV2 cells, cell supernatant
Procedure: After behavior test, blood samples from each group of mice were collected. Serum was obtained by centrifuge at 12000 rpm for 10 min and the levels of TNF-α and IL-1β were measured using ELISA kits. Briefly, samples were added to the wells with a biotin-conjugated antibody specific to TNF-α or IL-1β. Then, Avidin conjugated to Horseradish Peroxidase (HRP) was added to each microplate well and incubated. […] Finally, stop solution was added to stop the reaction and the color change were measured at a wavelength of 450 nm by a microplate reader. The concentration of TNF-α or IL-1β in the samples were then determined by comparing the OD value of the samples to the standard curve.
as §2

[3] = system: Tnfa, Il1b, IL-6, Cox2, and Inos; assay: mRNA levels of inflammatory genes (real-time qPCR); assay type: cell-based; conditions: Aβ42-stimulated, normalized to GAPDH
Procedure: Total RNA was isolated from cultured BV2 cells and brain tissues using TRIzol reagent (Thermo Fisher, 15596026) by standard techniques. Total RNA concentration was measured by a spectrophotometer. Then, PrimeScript RT-reagent Kit (Takara, RR037A) was used for cDNA synthesis. Real-time PCR amplification reactions were carried out on CFX96 Touch Real-Time PCR Detection System (Bio-Rad) using TB Green Premix Ex Taq II (Takara; RR820A). Quantification of the mRNA expression was calculated by […] method with GAPDH normalization. Primer sequences used in this study were presented in Supplementary Table S2.
Figure 5 Dectin-1 interference prevents Aβ42-induced inflammatory response in BV2 cells. (A) Time-course of Dectin-1-Syk interaction. […] (B) HEK-293T cells were transfected with Flag-tagged Dectin-1 (Flag-D1) and HA-tagged Dectin-1 (HA-D1). […] (C) Time-course of Syk phosphorylation. […] Total proteins were extracted and probed for p-Syk and Syk levels. GAPDH was used as loading control. (D) Dose-course of Syk phosphorylation. […] Total proteins were used to measure p-Syk and Syk levels. GAPDH was used as loading control. (E) Determination of Dectin-1 interference efficiency in BV2 cells. Total proteins were extracted and probed for p-Syk and Syk levels. […] (H) TNFα release in cell supernatant measured by ELISA. (I) IL-1β release in in cell supernatant measured by ELISA. […]

PC12 cells = assay: PC12 damage by BV2-conditioned medium; assay type: cell-based; conditions: medium of Dectin-1-deficient BV2 cells exposed to Aβ42, PC12 treated 24 h
Procedure: To test cellular apoptosis, TUNEL assay was performed (C1098, Beyotime, Shanghai, China). For cells: Properly treated BV2 cells were fixed with 4% PFA for 20 min and washed with PBST for 3 times. Then cells were incubated with TUNEL test solution (5 μl of TdT enzyme and 45 μl of fluorescent labeling solution) under dark condition for 1h. After washing with 1xPBS for three times, nuclei were stained with DAPI. The apoptotic cells (green fluorescence) were observed under fluorescent microscopy and calculated as a percentage of the total number of cells. For brain tissue: Processed tissue samples were incubated with 50 μl of TUNEL reaction mixture for 1h at 37℃ under dark conditions. Color developed in DAB coloring solution. Apoptosis index (brown color) in the hippocampus area were measured using this formula: apoptosis index (%) = (apoptotic neurons / total neurons) × 100%.

Syk/NF-κB = Syk/NF-κB activation in BV2 cells (western blot); assay type: cell-based; conditions: Aβ42-stimulated BV2 cells, siRNA targeting Dectin-1
Source text: as §1

APP/β-amyloid: APP/β-amyloid protein used as bait with lysates from WT and Aβ42 brain tissues
binding to Dectin-1 (co-IP) (Dectin-1 [1]): binds to the Dectin-1 protein in these lysates

Bio-Aβ42: biotin-labeled Amyloid beta peptide, obtained from GL Biochem
Syk phosphorylation by Bio-Aβ42 (Syk): retained the Dectin-1 activating activity of Aβ42, as evidenced by the increased phosphorylation of Syk | binding to Dectin-1 (pull-down/Co-IP) (Dectin-1 [2]): Co-IP analysis further confirmed this result

FITC-Aβ42: Aβ42 linked with a FITC label
phagocytosis and clearance of FITC-Aβ42, effect of Dectin-1 deficiency (BV2 cells): did not affect the fluorescence intensity of Aβ

siD1: siRNA targeting Dectin-1 gene; sense 5’-GGAGAAAUCCAGAGGAGAATT-3’, antisense 5’-UUCUCCUCUGGAUUUCUCCTT-3’ (chemistry not given here)
p65 nuclear translocation after Dectin-1 knockdown (NF-κB p65): remarkably inhibited Aβ42-induced p65 nuclear translocation | TNF-α and IL-1β release after Dectin-1 knockdown (TNF-α and IL-1β): decreased the release of the inflammatory factors TNF-α and IL-1β | mRNA levels of inflammatory genes Tnfa, Il1b, IL-6, Cox2, Inos [3]: significantly reversed | PC12 damage by medium of siD1-treated microglia (PC12 cells): failed to damage PC12 cells | Syk/NF-κB activity after Dectin-1 knockdown (Syk/NF-κB): this increased activity of Syk/NF-κB was not seen in Dectin-1-deficient BV2 cells
